In brackets after ≈: the same amount, converted by molar mass. Several values for one entry are separate records, joined by “and”; a condition that tells them apart may be missing. Equal values may be shown once. Each block holds one compound with its values, some of them ahead of it.
Tests used:
Assay in all cases: ≥ marks a high value that may be exact or a test limit, other limits are often not marked, values filed in µg/mL are converted to µM
[1] = test system: Bacillus subtilis ATCC 6633
[2] = test system: Escherichia coli ATCC 10536
[3] = test system: Escherichia coli DH5alpha
[4] = test system: Staphylococcus aureus ATCC 9144
[5] = test system: Bacillus subtilis KCTC 3068
[6] = test system: Escherichia coli CCARM 1229
[7] = test system: Escherichia coli CCARM 1238
[8] = test system: Escherichia coli KCTC 1682
[9] = test system: Pseudomonas aeruginosa KCTC 1637
[10] = test system: Salmonella typhimurium CCARM 8003
[11] = test system: Salmonella typhimurium KCTC 1926
[12] = test system: Staphylococcus aureus CCARM 3089
[13] = test system: Staphylococcus aureus CCARM 3114
[14] = test system: Staphylococcus aureus KCTC 1621
[15] = test system: Staphylococcus epidermidis KCTC 1917
Acinetobacter sp. M13523 = test system: Acinetobacter sp. M13523
Acinetobacter sp. M5949 = test system: Acinetobacter sp. M5949
Acinetobacter sp. M9013 = test system: Acinetobacter sp. M9013
Acinetobacter sp. M9665 = test system: Acinetobacter sp. M9665
[16] = test system: Enterococcus faecalis ATCC 29212
[17] = test system: Enterococcus faecalis ATCC 51299
[18] = test system: Enterococcus faecalis M4899
[19] = test system: Enterococcus faecalis M6534
[20] = test system: Enterococcus faecium M2664
[21] = test system: Enterococcus faecium PZAP 95
[22] = test system: Enterococcus gallinarum M2685
[23] = test system: Enterococcus gallinarum M2723
[24] = test system: Escherichia coli ATCC 25922
Escherichia coli M5306 = test system: Escherichia coli M5306
Escherichia coli M9884 = test system: Escherichia coli M9884
Escherichia coli PCOS 15 = test system: Escherichia coli PCOS 15
[25] = test system: Klebsiella pneumoniae M13540
[26] = test system: Klebsiella pneumoniae M5825
[27] = test system: Klebsiella pneumoniae M9170
[28] = test system: Klebsiella pneumoniae M9491
[29] = test system: Klebsiella pneumoniae PFAV 3
[30] = test system: Pseudomonas aeruginosa ATCC 27853
[31] = test system: Pseudomonas aeruginosa PACO12
[32] = test system: Staphylococcus aureus ATCC 25923
[33] = test system: Staphylococcus aureus M6784
[34] = test system: Staphylococcus aureus P204
[35] = test system: Staphylococcus aureus P33
Staphylococcus cohnii = test system: Staphylococcus cohnii
[36] = test system: Staphylococcus epidermidis M2921
[37] = test system: Staphylococcus epidermidis M2923
[38] = test system: Staphylococcus haemolyticus M2976
[39] = test system: Staphylococcus hominis M2967
[40] = test system: Staphylococcus hominis M2973
[41] = test system: Staphylococcus saprophyticus M2981
[42] = test system: Staphylococcus saprophyticus M4070
Staphylococcus warneri = test system: Staphylococcus warneri
[43] = test system: Klebsiella pneumoniae ATCC 13883
[44] = test system: Listeria monocytogenes ATCC 19115
[45] = test system: Salmonella enterica subsp. enterica serovar Enteritidis ATCC 13076
[46] = test system: Staphylococcus aureus ATCC 43300
[47] = test system: Staphylococcus aureus ATCC BAA-39

MIC [1]: 1.7 µM (≈ 5.15 µg/mL) | MIC [2]: 2.5 µM (≈ 7.58 µg/mL) | MIC [3]: 2.7 µM (≈ 8.19 µg/mL) | MIC [4]: 3.8 µM (≈ 11.5 µg/mL)
Compound: CC[C@H](C)[C@H](NC(=O)[C@H](CCCN=C(N)N)NC(=O)[C@@H](NC(=O)[C@@H](NC(=O)[C@@H]1CCCN1C(=O)[C@@H](NC(=O)[C@@H](NC(=O)[C@H](C)NC(=O)[C@@H]1CCCN1C(=O)CNC(=O)[C@H](Cc1ccc(O)cc1)NC(=O)[C@H](CCCCN)NC(=O)[C@H](CCCCN)NC(=O)[C@H](Cc1c[nH]c2ccccc12)NC(=O)[C@H](C)NC(=O)[C@H](CCCN=C(N)N)NC(=O)[C@H](CC(C)C)NC(=O)[C@@H](NC(=O)[C@H](CCCCN)NC(=O)[C@H](CCCN=C(N)N)NC(=O)CNC(=O)[C@H](CC(C)C)NC(=O)[C@H](CO)NC(=O)[C@H](CCCN=C(N)N)NC(=O)[C@H](CC(C)C)NC(=O)CNC(=O)CN)[C@@H](C)CC)[C@@H](C)CC)C(C)C)[C@@H](C)CC)[C@@H](C)CC)C(N)=O [GGLRSLGRKILRAWKKYGPAIVPIIRI]

MIC [5]: 8 µM (≈ 8.32 µg/mL) | MIC [6]: 16 µM (≈ 16.6 µg/mL) | MIC [7]: 8 µM (≈ 8.32 µg/mL) | MIC [8]: 8 µM (≈ 8.32 µg/mL) | MIC [9]: ≥ 32 µM | MIC [10]: ≥ 32 µM | MIC [11]: ≥ 32 µM | MIC [12]: 16 µM (≈ 16.6 µg/mL) | MIC [13]: ≥ 32 µM | MIC [14]: 16 µM (≈ 16.6 µg/mL) | MIC [15]: 4 µM (≈ 4.16 µg/mL)
Compound: CC[C@H](C)[C@H](NC(=O)[C@H](C)NC(=O)[C@H](CC(C)C)NC(=O)[C@H](Cc1c[nH]c2ccccc12)NC(=O)[C@H](CC(C)C)NC(=O)[C@@H](N)CCCN=C(N)N)C(=O)NCC(=O)N[C@@H](CCCN=C(N)N)C(=O)NCC(N)=O [RLWLAIGRG]

MIC (Acinetobacter sp. M13523): 1.65 µM (≈ 4 µg/mL) | MIC (Acinetobacter sp. M5949): 6.61 µM (≈ 16 µg/mL) | MIC (Acinetobacter sp. M9013): 3.3 µM (≈ 8 µg/mL) | MIC (Acinetobacter sp. M9665): 13.2 µM (≈ 32 µg/mL) | MIC [16]: 52.9 µM (≈ 128 µg/mL) | MIC [17]: ≥ 106 µM | MIC [18]: ≥ 52.9 µM | MIC [19]: ≥ 106 µM | MIC [20]: 3.3 µM (≈ 8 µg/mL) | MIC [21]: 6.61 µM (≈ 16 µg/mL) | MIC [22]: 6.61 µM (≈ 16 µg/mL) | MIC [23]: 13.2 µM (≈ 32 µg/mL) | MIC [24]: 13.2 µM (≈ 32 µg/mL) | MIC (Escherichia coli M5306): 1.65 µM (≈ 4 µg/mL) | MIC (Escherichia coli M9884): 13.2 µM (≈ 32 µg/mL) | MIC (Escherichia coli PCOS 15): 26.4 µM (≈ 64 µg/mL) | MIC [25]: 6.61 µM (≈ 16 µg/mL) | MIC [26]: 3.3 µM (≈ 8 µg/mL) | MIC [27]: 13.2 µM (≈ 32 µg/mL) | MIC [28]: 26.4 µM (≈ 64 µg/mL) | MIC [29]: ≥ 52.9 µM | MIC [30]: 26.4 µM (≈ 64 µg/mL) | MIC [31]: 26.4 µM (≈ 64 µg/mL) | MIC [32]: 26.4 µM (≈ 64 µg/mL) | MIC [33]: 13.2 µM (≈ 32 µg/mL) | MIC [34]: 26.4 µM (≈ 64 µg/mL) | MIC [35]: ≥ 52.9 µM | MIC (Staphylococcus cohnii): 6.61 µM (≈ 16 µg/mL) | MIC [36]: 3.3 µM (≈ 8 µg/mL) | MIC [37]: 6.61 µM (≈ 16 µg/mL) | MIC [39]: 3.3 µM (≈ 8 µg/mL) | MIC [40]: 1.65 µM (≈ 4 µg/mL) | MIC [41]: 3.3 µM (≈ 8 µg/mL) | MIC [42]: 13.2 µM (≈ 32 µg/mL) | MIC (Staphylococcus warneri): 3.3 µM (≈ 8 µg/mL)
Compound: CC[C@H](C)[C@H](NC(=O)[C@H](CCCN=C(N)N)NC(=O)[C@H](CCCCN)NC(=O)[C@H](Cc1ccccc1)NC(=O)[C@H](CCC(=O)O)NC(=O)[C@H](CCCCN)NC(=O)[C@H](Cc1c[nH]c2ccccc12)NC(=O)[C@H](CCCCN)NC(=O)[C@H](CCCCN)NC(=O)[C@H](CC(C)C)NC(=O)[C@H](Cc1c[nH]c2ccccc12)NC(=O)[C@H](CCCCN)NC(=O)[C@H](CCCCN)NC(=O)[C@H](CC(C)C)NC(=O)[C@H](CC(C)C)NC(=O)CN)C(=O)N[C@H](C(=O)NCC(=O)N[C@@H](Cc1ccc(O)cc1)C(N)=O)C(C)C [GLLKKWLKKWKEFKRIVGY]
MIC [38]: 3.3 µM (≈ 8 µg/mL)

MIC [24]: 22.6 µM and 32 µM | MIC [43]: 16 µM and ≥ 32 µM | MIC [44]: 22.6 µM and ≥ 32 µM | MIC [45]: 16 µM (≈ 27.9 µg/mL) | MIC [32]: 11.3 µM and 32 µM | MIC [46]: 32 µM (≈ 55.9 µg/mL) | MIC [47]: ≥ 32 µM
Compound: CC[C@H](C)[C@H](NC(=O)[C@H](CCCCN)NC(=O)[C@H](CCCN=C(N)N)NC(=O)[C@H](CC(C)C)NC(=O)[C@H](Cc1ccccc1)NC(=O)[C@H](CCCN=C(N)N)NC(=O)CNC(=O)[C@H](Cc1ccccc1)NC(=O)[C@H](CCCN=C(N)N)NC(=O)CNC(=O)[C@H](CCCN=C(N)N)NC(=O)[C@H](CCC(N)=O)NC(=O)[C@@H](NC(=O)[C@@H](N)CC(C)C)C(C)C)C(=O)O [LVQRGRFGRFLRKI]
